Results from ChEMBL document CHEMBL1268826, “Discovery of the inhibitors of tumor necrosis factor alpha with structure-based virtual screening” (Bioorg Med Chem Lett, 2010).

Target: T1, Tumor necrosis factor (Mus musculus) (UniProt P06804)
T1 sequence (whole entry): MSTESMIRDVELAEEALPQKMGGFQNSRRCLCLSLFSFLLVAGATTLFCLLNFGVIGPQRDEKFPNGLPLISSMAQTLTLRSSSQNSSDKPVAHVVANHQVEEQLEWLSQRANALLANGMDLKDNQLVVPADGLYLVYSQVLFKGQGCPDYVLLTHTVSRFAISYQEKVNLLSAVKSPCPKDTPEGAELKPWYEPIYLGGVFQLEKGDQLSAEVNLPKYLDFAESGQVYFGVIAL
Assay: Inhibition of TNFalpha in LPS-stimulated mouse RAW264.7 cells at 10 uM after 2 hrs treated after 14 hrs of LPS challenge by FACS analysis
Assay type: cell-based

Going from `O=C1NC(=O)N(c2ccccc2)C(=O)/C1=C\c1ccccc1OCc1ccccc1Cl` to `O=C1NC(=O)N(c2ccc3c(c2)OCO3)C(=O)/C1=C\c1cn(Cc2ccccc2Cl)c2ccccc12`, the inhibition rises from 47.9% to 54.6%.

Going from `Cc1cccc(N2C(=O)NC(=O)/C(=C/c3ccc(-c4ccc(C(=O)O)c(Cl)c4)o3)C2=O)c1` to `O=c1cc(-c2ccccc2)oc2cc(O)c(O)c(O)c12`, the inhibition rises from 64% to 71.3%.

First: c1ccc(-n2ncc3c(NCCN4CCCCC4)ncnc32)cc1
Second: NC(=O)c1cc(-c2csc(C3COc4ccccc4O3)n2)ccc1OCc1ccccc1 (stereo unspecified)
The inhibition of the first is lower: 45.8% for the first, 52.6% for the second.
